# “Also recorded” adds a separate entry of the source.
# Columns and labels:
# [1] = 25° C.; cited from earlier work
# Microcystis aeruginosa [2] = assay: Comparison of algaecides, inhibition rate from chlorophyll a content; assay type: cell-based; details: incubated 3 days; 15 mg/L
# Description: (§1) Unless otherwise specified, the Microcystis aeruginosa species used in the following examples is the high-toxin-producing strain FACHB-905.
# The measurement of chlorophyll a refers to the method in the literature (“Potent removal of cyanobacteria with controlled release of toxic secondary metabolites by a titanium xerogel coagulant”, Water Res. 2018, 128, 341-349). Specifically, collected algae culture is filtered with a 0.7 μm GF/F glass filter membrane (Whatman). The collected cells are frozen overnight in a refrigerator at −4° C. Then 90% acetone is added for overnight extraction. The extract is centrifuged in a high-speed refrigerated centrifuge (Tianuoda, CT14RD) at 10,000 rpm and 4° C. for 10 min to collect the supernatant, and the absorbance is detected at 630 nm, 663 nm, 645 nm and 750 nm. The formula for calculating the content of chlorophyll a is as follows:
# [formula] wherein A663, A750, A645 and A750 are the absorbance of the supernatant at 663 nm, 750 nm, 645 nm and 750 nm, respectively. Ve is the volume of an extracted solution, Vs is the volume of a filtered solution, and δ is the optical path of a cuvette. The calculation formula for the inhibition rate of an algaecide on Microcystis aeruginosa is as follows: […]
# 300 mL of BG-11 medium was added to 500 mL Erlenmeyer flasks, and was inoculated with cyanobacteria of 0.2 calculated as OD680 under aseptic conditions. […]
# [3] = pH 6.4; cited from earlier work
# Daphnia magna = details: cited from earlier work
# Microcystis aeruginosa [4] = assay: Actual photochemical quantum yield of the photosystem (Water-PAM); assay type: cell-based
# Procedure: as §1
# The actual photochemical quantum yield is measured using a Water-PAM phytoplankton analyzer (Walz), and 2.5 mL of algae culture is taken to measure Fm′ and Fs after light adaptation. The calculation formula for the actual photochemical quantum yield is as follows: ϕe=ΔF/Fm′=(Fm′−Fs)/Fm′ wherein ϕe is the actual photochemical quantum yield, and Fm′ and Fs are the maximum chlorophyll fluorescence and the stable chlorophyll fluorescence of the algae culture after light adaptation, respectively (“Effects of different algaecides on the photosynthetic capacity, cell integrity and microcystin-LR release of Microcystis aeruginosa”, Sci. Total Environ. 2013, 463, 111-119).
# 100 mL of BG-11 medium was added to 150 mL Erlenmeyer flasks, and was inoculated with cyanobacteria to an initial OD680 of 0.2 under aseptic conditions. Different volumes of the AA stock solution were added to the Erlenmeyer flasks, so that the dosage of AA was 7 mg/L, 10 mg/L and 15 mg/L, respectively. At the same time, a control experiment (Control) without AA was established. […] At the beginning of the incubation and after 0.5 d, 1 d, 1.5 d, 2 d, 3 d, 4 d, and 5 d of the incubation, samples were taken to detect the chlorophyll fluorescence parameters under aseptic conditions.
# Microcystis aeruginosa [5] = assay: Growth inhibition under natural light (sunlit window sill), OD680; assay type: cell-based; details: under sunlight, within 5 days
# Procedure: as §1
# (§2) The concentration of Microcystis aeruginosa and other bacteria is measured with an ultraviolet spectrophotometer (Shimadzu, UV-2700), and the concentration is characterized by the optical density of liquid at 680 nm and 600 nm, and recorded as OD680 and OD600, respectively.
# 100 mL of BG-11 medium was added to 150 mL Erlenmeyer flasks, and was inoculated with cyanobacteria to an initial OD680 of 0.2 under aseptic conditions. A certain volume of the AA stock solution was added to the Erlenmeyer flasks, so that the dosage of AA was 10 mg/L or 20 mg/L. At the same time, a control experiment (Control) without AA was established. The cyanobacteria were placed at a sunlit window sill for incubation. At the beginning of the incubation and after 0.5 d, 1 d, 1.5 d, 2 d, 3 d, 4 d, and 5 d of the incubation, samples were taken to detect the OD680 under aseptic conditions.
# [6] = test system: Microcystis aeruginosa (FACHB-905); assay: Algicidal effect on toxin-producing Microcystis aeruginosa, OD680 over 5 d in light incubator; assay type: cell-based
# Procedure: (§3) Microcystis aeruginosa is cultured in a light incubator (GZX-250BS-III), provided by Shanghai CIMO Medical Instrument Co., Ltd., with a light intensity of 3000 LX, a light-dark time ratio of 12:12, and a temperature setting of 25° C. The four kinds of bacteria are all cultured in a biochemical incubator (SPX-150), provided by Shanghai Yuejin Medical Instruments Co., Ltd., with a temperature setting of 37° C.
# as §2
# (§4) 100 mL of BG-11 medium was added to a 150 mL Erlenmeyer flasks, and was inoculated with cyanobacteria of 0.2 calculated as OD680 under aseptic conditions. Different volumes of the AA stock solution were added to the Erlenmeyer flasks to make sure that the dosage of AA was 5 mg/L, 7 mg/L, 10 mg/L, 15 mg/L and 20 mg/L in different Erlenmeyer flasks. At the same time, a control experiment (Control) without AA was established. The cyanobacteria were put in a light incubator for culture. Considering the existing reports that the most suitable growth light for cyanobacteria was 2,000-4,000 LX (see “Freshwater Algae Culture Collection at the Institute of Hydrobiology”, website “http://algae.ihb.ac.cn/Products/ProductDetail.aspx?product=523”, and the literature “The effect of light on the growth and chlorophyll fluorescence of Chlorella and Microcystis aeruginosa”, Journal of Xi'an University of Arts and Science, 2019, 22, 73-77”), 3,000 LX was selected as the light intensity in the present example. At the beginning of the incubation and after 0.5 d, 1 d, 1.5 d, 2 d, 3 d, 4 d and 5 d of the incubation, samples were taken to detect the OD680 under aseptic conditions.
# [7] = test system: Microcystis aeruginosa (FACHB-469); assay: Algicidal effect on non-toxic Microcystis aeruginosa, OD680 over 5 d in light incubator; assay type: cell-based
# Procedure: as §3, §2, §4
# Except for the different cyanobacteria strain, other operations are the same as those in step (1).
# Microcystis aeruginosa [8] = assay: Algicidal effect at different initial densities of Microcystis aeruginosa, OD680; assay type: cell-based; details: 15 mg/L; initial OD680 0.11 to 1.0 (up to 2.59×10^7 cells/mL); 5 d
# Procedure: as §1, §2
# 100 mL of BG-11 medium was added to 150 mL Erlenmeyer flasks, and was inoculated with cyanobacteria to finally obtain solutions with the OD680 of 0.11, 0.27, 0.62 and 1.0, respectively, under aseptic conditions. A certain volume of the AA stock solution was added to the Erlenmeyer flasks, so that the dosage of AA is 15 mg/L. At the same time, the control experiments (Control) without AA were established for different cyanobacteria densities. The cyanobacteria were put in a light incubator for culture. At the beginning of the incubation and after 1 d, 2 d, 3 d, 4 d, and 5 d of the incubation, samples were taken to detect the OD680 under aseptic conditions.
# Salmonella = assay: Bacterial growth with AA, OD600 after 24 h; assay type: cell-based
# Procedure: (§5) The bacteria used in the following examples are Escherichia coli, Salmonella, Bacillus subtilis and Staphylococcus aureus, all of which are provided by the School of Life Sciences, Nanjing University. The bacteria are cultured with an LB nutrient broth. The main components of the LB nutrient broth include: tryptone 10.0 g/L, yeast extract 5.0 g/L, and sodium chloride 10.0 g/L.
# as §3, §2
# (§6) 4 mL of nutrient broth was added to 9 test tubes under aseptic conditions, and the test tubes were numbered 1 to 9. A broth stock solution containing 1,536 mg/L AA was prepared, and 4 mL of which was taken and added to the No. 9 test tube. After the solution in the No. 9 test tube was uniformly mixed, 4 mL of the mixed solution in the No. 9 test tube was taken and added to the No. 8 test tube. By analogy, dilution was performed by the stepwise dilution method to the No. 2 test tube, and after uniform mixing, 4 mL of the solution in the No. 2 test tube was taken and discarded. The No. 1 test tube without AA was taken as the blank group (Control). The final concentrations of AA in each test tube from No. 1 to No. 9 were 0 mg/L, 6 mg/L, 12 mg/L, 24 mg/L, 48 mg/L, 96 mg/L, 192 mg/L, 384 mg/L, and 768 mg/L, respectively. A suspension of the bacteria was diluted with nutrient broth to an OD600 of 0.05. 100 μL of the diluted suspension was added to each of the 9 test tubes, and the test tubes were sealed with sterilized sealing films. After completing the above operations, the bacterial solutions were put into a biochemical incubator, and the OD600 in each test tube was measured after incubation for 24 h.
# Bacillus subtilis = assay: Bacterial growth with AA, OD600 after 24 h; assay type: cell-based; details: for effect on growth (OD600): 6-768 mg/L, 24 h, vs control
# Procedure: as §5, §3, §2, §6
# Escherichia coli = assay: Bacterial growth with AA, OD600 after 24 h; assay type: cell-based; details: for growth rate (OD600) / effect on growth (OD600): 24 h; for effect on growth (OD600): 6-768 mg/L, vs control
# Procedure: as §5, §3, §2, §6
# Staphylococcus aureus = assay: Bacterial growth with AA, OD600 after 24 h; assay type: cell-based
# Procedure: as §5, §3, §2, §6
# [9] = concentration less than 738 mg/L
compound,measurement,setting,value
"CC(=O)CC(C)=O [AA, acetylacetone]",Henry's law constant,[1],2.35×10^−6 atm m^3/mol
same,inhibition rate on Microcystis aeruginosa (chlorophyll a),Microcystis aeruginosa [2],higher than all other algaecides
same,aquatic oxidation rate,[3],9.9e-09 M⁻¹ s⁻¹
same,median lethal dose,Daphnia magna,higher than 50 mg/L
same,actual photochemical quantum yield,"Microcystis aeruginosa [4]; after 1 day of incubation, 7, 10, 15 mg/L",significantly inhibited
same,actual photochemical quantum yield,"Microcystis aeruginosa [4]; second day of growth, AA of greater than 7 mg/L",0
same,effect on growth (OD680),Microcystis aeruginosa [5]; 10 mg/L,significantly inhibited
same,effect on growth (OD680),Microcystis aeruginosa [5]; 20 mg/L,significantly inhibited
same,effect on growth (OD680),"[6]; 5 mg/L, compared to the control group",no significant effect
same,effect on growth (OD680),[6]; 7 mg/L,"inhibited, but the growth curve of which is still increase"
same,algicidal effect on growth (OD680),"[6]; 10 mg/L, within 5 d, weaker than 15 mg/L",continued to show algicidal effect
same,growth curve (OD680),"[6]; 20 mg/L, compared with 15 mg/L AA",no significant change in the growth curve
same,optical density (OD680),"[6]; AA concentration greater than 15 mg/L, starting from day 1.5",began to decrease
same,effect on growth (OD680),"[6]; first day of addition, 5-20 mg/L",no significant effect
same,algicidal effect on growth (OD680),[7]; 5 mg/L,still showed algicidal effect
same,algicidal effect on growth (OD680),[7]; 7 mg/L,a certain algicidal effect
same,growth curve (OD680),"[7]; 20 mg/L, compared with 10 mg/L and 15 mg/L AA",did not change significantly
same,effect on growth (OD680),[7]; dosage greater than 10 mg/L,significantly inhibited
same,effect on growth (OD680),[7]; on day 1.5,inhibited
same,algicidal performance (OD680),Microcystis aeruginosa [8],excellent algicidal performance
same,growth rate (OD600),"Salmonella; 768 mg/L, still a growth trend within 24 h",decreased
same,growth rate (OD600),"Salmonella; 6-384 mg/L, compared with the control group",increased
same,effect on growth (OD600),"Salmonella; 6-768 mg/L, 24 h, vs control",no inhibitory effect; also recorded: basically had no influence on the growth
same,killing of bacteria,Salmonella; [9],will not kill
same,effect on growth (OD600),Bacillus subtilis,basically had no influence on the growth
same,effect on growth (OD600),Bacillus subtilis; listed as acetylacetone,no inhibitory effect
same,killing of bacteria,Bacillus subtilis; [9],will not kill
same,growth rate (OD600),Escherichia coli; 12 mg/L,slightly lower than that of the control group
same,effect on growth (OD600),Escherichia coli,basically had no influence on the growth
same,effect on growth (OD600),Escherichia coli; listed as acetylacetone,no inhibitory effect
same,growth rate (OD600),Escherichia coli; concentration increased to 24 mg/L,increased slightly
same,killing of bacteria,Escherichia coli; [9],will not kill
same,effect on growth (OD600),"Staphylococcus aureus; 6-768 mg/L, 24 h, vs control",basically had no influence on the growth
same,effect on growth (OD600),"Staphylococcus aureus; 6-768 mg/L, 24 h, vs control, listed as acetylacetone",no inhibitory effect
same,killing of bacteria,Staphylococcus aureus; [9],will not kill
same,effect on growth (OD600),Staphylococcus aureus; concentration of up to 768 mg/L,can still promote the growth
"O=C(O)c1cc(O)c(O)c(O)c1 [gallic acid, reference compound]",inhibition rate on Microcystis aeruginosa (chlorophyll a),Microcystis aeruginosa [2],close to that of AA
